Experimental data published in ChEMBL document CHEMBL3864168, “Imidazopyridazine Inhibitors of PI3Kβ” (ACS Med Chem Lett, 2016).

Tests used:
[1] = target: T1, Phosphatidylinositol 4,5-bisphosphate 3-kinase catalytic subunit delta isoform (Homo sapiens, UniProt O00329); assay: Binding affinity to human PI3Kdelta (108 to 1044 residues) expressed in mammalian expression system by KINOMEscan assay
T1 sequence (O00329 whole entry): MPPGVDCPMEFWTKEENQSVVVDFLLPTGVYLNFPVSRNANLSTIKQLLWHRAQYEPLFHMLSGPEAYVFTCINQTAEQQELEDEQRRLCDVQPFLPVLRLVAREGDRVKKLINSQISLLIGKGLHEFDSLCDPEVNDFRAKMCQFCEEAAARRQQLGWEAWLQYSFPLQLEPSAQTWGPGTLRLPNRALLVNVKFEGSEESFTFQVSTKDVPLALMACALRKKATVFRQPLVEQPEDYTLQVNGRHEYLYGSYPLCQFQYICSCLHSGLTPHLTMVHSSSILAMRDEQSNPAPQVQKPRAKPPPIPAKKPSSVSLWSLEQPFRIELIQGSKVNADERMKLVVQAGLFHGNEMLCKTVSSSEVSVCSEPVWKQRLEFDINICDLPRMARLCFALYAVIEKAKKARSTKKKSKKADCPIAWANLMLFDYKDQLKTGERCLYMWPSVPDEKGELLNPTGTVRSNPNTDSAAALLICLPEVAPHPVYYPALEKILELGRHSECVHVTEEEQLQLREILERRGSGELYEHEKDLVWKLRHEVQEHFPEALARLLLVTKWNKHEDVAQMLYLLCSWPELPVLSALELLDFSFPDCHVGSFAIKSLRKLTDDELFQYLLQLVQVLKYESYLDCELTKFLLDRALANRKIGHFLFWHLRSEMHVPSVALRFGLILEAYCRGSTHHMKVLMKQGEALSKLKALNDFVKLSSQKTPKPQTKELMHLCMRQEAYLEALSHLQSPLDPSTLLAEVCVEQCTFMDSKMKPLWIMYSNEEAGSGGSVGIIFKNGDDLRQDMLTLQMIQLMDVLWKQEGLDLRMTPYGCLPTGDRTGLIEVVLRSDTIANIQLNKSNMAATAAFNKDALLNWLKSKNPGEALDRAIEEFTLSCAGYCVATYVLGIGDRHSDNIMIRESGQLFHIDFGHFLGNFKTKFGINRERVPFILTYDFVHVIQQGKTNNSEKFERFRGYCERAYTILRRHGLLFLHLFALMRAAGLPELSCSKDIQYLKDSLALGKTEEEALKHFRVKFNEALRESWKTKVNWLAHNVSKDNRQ

[2] = target: Phosphatidylinositol 4,5-bisphosphate 3-kinase catalytic subunit gamma isoform (Homo sapiens, UniProt P48736); assay: Binding affinity to human PI3Kgamma (144 to 1102 residues) expressed in mammalian expression system by KINOMEscan assay
Sequence of Phosphatidylinositol 4,5-bisphosphate 3-kinase catalytic subunit gamma isoform (P48736 whole entry, the tested form may be a part, canonical isoform): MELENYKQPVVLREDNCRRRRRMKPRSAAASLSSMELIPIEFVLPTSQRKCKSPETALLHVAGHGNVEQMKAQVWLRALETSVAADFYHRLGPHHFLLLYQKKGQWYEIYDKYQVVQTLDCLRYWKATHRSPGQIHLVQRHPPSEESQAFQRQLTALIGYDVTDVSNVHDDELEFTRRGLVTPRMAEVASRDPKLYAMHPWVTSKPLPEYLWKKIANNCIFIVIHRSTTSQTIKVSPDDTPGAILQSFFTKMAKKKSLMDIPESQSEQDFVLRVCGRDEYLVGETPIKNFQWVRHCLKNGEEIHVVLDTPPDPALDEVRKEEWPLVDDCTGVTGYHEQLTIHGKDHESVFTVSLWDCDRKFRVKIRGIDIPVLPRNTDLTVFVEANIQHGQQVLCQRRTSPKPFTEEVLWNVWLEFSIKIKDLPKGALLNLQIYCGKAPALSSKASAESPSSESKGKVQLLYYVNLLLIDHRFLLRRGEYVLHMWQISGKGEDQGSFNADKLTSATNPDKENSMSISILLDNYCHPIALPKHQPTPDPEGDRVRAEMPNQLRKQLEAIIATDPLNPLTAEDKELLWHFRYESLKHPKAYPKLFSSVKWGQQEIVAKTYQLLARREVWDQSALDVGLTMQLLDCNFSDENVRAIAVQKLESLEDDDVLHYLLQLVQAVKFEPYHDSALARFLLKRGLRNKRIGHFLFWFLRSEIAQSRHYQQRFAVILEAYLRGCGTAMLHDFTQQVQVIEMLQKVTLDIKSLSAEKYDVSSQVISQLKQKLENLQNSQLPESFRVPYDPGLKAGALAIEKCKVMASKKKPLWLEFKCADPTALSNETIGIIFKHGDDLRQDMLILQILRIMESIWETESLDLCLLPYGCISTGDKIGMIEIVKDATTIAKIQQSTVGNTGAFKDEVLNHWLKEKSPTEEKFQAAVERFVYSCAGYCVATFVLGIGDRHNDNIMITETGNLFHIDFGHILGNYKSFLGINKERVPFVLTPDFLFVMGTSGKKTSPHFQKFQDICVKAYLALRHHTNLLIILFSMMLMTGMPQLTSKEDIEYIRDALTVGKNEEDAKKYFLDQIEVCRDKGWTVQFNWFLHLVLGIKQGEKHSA

[3] = target: Serine/threonine-protein kinase mTOR (Homo sapiens, UniProt P42345); assay: Binding affinity to human MTOR (1382 to 2549 residues) expressed in mammalian expression system by KINOMEscan assay
[4] = target: T2, Phosphatidylinositol 4,5-bisphosphate 3-kinase catalytic subunit beta isoform (Homo sapiens, UniProt P42338); assay: Inhibition of PI3Kbeta in human PC3 cells assessed as suppression of AKT phosphorylation at Ser473 after 60 mins by ELISA; type: cell-based, PC-3
T2 sequence (P42338 whole entry, canonical isoform): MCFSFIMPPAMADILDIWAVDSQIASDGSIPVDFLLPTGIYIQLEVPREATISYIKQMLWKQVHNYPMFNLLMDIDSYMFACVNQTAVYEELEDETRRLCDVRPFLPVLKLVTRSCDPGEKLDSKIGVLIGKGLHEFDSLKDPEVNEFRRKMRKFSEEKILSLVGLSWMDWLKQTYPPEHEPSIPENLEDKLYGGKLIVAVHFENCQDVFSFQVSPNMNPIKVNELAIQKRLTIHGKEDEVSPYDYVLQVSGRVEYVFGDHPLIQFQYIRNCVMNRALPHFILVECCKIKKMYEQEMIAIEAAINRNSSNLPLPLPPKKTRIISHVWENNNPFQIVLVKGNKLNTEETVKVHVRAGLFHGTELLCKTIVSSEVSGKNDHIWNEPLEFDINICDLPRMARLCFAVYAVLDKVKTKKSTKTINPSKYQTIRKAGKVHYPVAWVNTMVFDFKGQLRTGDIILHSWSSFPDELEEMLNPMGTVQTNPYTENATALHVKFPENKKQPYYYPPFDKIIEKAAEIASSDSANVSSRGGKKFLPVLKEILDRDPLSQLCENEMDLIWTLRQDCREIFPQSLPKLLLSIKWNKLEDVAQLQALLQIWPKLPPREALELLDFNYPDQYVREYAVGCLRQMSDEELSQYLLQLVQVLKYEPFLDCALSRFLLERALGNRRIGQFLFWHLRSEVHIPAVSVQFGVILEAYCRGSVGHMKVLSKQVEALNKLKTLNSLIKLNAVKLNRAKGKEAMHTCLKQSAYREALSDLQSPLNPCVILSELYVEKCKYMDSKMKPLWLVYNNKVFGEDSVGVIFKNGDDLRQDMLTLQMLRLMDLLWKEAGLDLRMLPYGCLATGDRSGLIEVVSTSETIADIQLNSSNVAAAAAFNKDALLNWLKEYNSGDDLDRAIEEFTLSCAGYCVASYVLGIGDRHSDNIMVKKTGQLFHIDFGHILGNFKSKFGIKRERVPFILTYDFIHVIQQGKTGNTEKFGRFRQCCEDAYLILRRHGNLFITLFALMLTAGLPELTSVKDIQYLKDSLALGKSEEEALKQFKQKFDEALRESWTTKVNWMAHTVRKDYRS

[5] = target: T2, Phosphatidylinositol 4,5-bisphosphate 3-kinase catalytic subunit beta isoform; assay: Inhibition of PI3Kbeta in human PC3 cells assessed as suppression of AKT phosphorylation at Thr308 after 60 mins by ELISA; type: cell-based, PC-3
[6] = target: Phosphatidylinositol 4,5-bisphosphate 3-kinase catalytic subunit alpha isoform (Homo sapiens, UniProt P42336); assay: Binding affinity to human PI3Kalpha (108 to 1068 residues) expressed in mammalian expression system by KINOMEscan assay
Sequence of Phosphatidylinositol 4,5-bisphosphate 3-kinase catalytic subunit alpha isoform (P42336 whole entry, the tested form may be a part, canonical isoform): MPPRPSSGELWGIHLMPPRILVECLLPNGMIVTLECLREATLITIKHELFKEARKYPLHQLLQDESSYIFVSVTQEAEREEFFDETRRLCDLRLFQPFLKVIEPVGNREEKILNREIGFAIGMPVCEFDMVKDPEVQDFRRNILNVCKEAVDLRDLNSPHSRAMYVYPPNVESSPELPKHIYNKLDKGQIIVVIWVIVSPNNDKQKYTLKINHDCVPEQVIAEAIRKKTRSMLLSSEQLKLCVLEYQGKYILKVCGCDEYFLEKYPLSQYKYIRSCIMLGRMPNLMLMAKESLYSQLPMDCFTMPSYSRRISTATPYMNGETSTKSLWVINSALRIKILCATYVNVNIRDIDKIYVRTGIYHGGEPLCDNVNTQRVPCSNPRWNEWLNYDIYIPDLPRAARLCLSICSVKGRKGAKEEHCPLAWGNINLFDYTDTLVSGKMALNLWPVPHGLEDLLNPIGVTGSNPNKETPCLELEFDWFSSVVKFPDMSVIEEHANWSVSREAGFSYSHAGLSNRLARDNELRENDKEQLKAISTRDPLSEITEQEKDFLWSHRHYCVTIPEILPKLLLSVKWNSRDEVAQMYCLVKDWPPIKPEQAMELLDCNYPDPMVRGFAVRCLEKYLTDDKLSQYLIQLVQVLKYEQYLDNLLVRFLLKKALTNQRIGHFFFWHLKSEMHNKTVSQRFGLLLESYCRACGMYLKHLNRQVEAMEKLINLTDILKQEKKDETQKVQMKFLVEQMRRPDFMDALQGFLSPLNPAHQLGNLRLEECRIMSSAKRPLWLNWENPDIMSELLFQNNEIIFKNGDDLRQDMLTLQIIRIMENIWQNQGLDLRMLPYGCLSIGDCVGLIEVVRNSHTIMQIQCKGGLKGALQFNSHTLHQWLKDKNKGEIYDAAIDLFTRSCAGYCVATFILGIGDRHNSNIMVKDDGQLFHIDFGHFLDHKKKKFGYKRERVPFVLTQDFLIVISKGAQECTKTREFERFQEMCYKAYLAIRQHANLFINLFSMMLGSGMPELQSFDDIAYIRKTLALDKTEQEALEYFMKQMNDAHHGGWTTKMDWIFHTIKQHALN

[7] = target: T2, Phosphatidylinositol 4,5-bisphosphate 3-kinase catalytic subunit beta isoform; assay: Binding affinity to human PI3Kbeta (118 to 1070 residues) expressed in mammalian expression system by KINOMEscan assay

| SMILES | Kd [1] [nM] | Kd [2] [nM] | Kd [3] [nM] | IC50 [4] [nM] | IC50 [5] [nM] | Kd [6] [nM] | Kd [7] [nM] |
| --- | --- | --- | --- | --- | --- | --- | --- |
| Cc1nc2c(N)cc(N3CCOCC3)nn2c1Nc1cccc(C(F)(F)F)c1CN1CC(O)C1 | 73 | 19600 | > 30200 | 44 | 33 | – | – |
| Cc1nc2c(-c3cnc[nH]3)cc(N3CCOCC3)nn2c1Cc1cccc(C(F)(F)F)c1C | – | – | – | 59 | 48 | – | – |
| Cc1nc2c(-c3cnc[nH]3)cc(N3CCOCC3)nn2c1Nc1cccc(C(F)(F)F)c1CN1CC(O)C1 | – | – | – | 174 | 17 | – | – |
| Cc1c(Cc2c(CO)nc3c(C(=O)O)cc(N4CCOCC4)nn23)cccc1C(F)(F)F | – | > 15100 | – | > 513 | > 513 | – | – |
| Cc1nc2c(C(N)=O)cc(N3CCOCC3)nn2c1Cc1cccc(C(F)(F)F)c1C | – | > 30200 | > 30200 | 501 | > 513 | > 30200 | – |
| Cc1c(Cc2c(CO)nc3c(N)cc(N4CCOCC4)nn23)cccc1C(F)(F)F [listing 1 of 2 here] | – | > 10000 | – | 46 | 38 | > 30200 | – |
| Cc1c(Cc2c(CN(C)CCS(C)(=O)=O)nc3c(N)cc(N4CCOCC4)nn23)cccc1C(F)(F)F | – | > 30200 | – | 34 | 41 | – | – |
| Cc1c(Nc2c(CO)nc3c(N)cc(N4CCOC(CO)C4)nn23)cccc1C(F)(F)F (stereo in doubt; 66) | 11000 | 13500 | 1380 | > 513 | 513 | > 30200 | 138 |
| Cc1nc2c(N)cc(N3CCOCC3)nn2c1Cc1cccc(C(F)(F)F)c1C | 171 | 11400 | 20300 | 12 | 17 | 5130 | 6 |
| Cc1c(Cc2c(CO)nc3c(N)cc(N4CCOCC4)nn23)cccc1C(F)(F)F [listing 2 of 2 here] | – | – | – | 52 | 41 | – | – |
| Cc1nc2c(N)cc(N3CCOCC3)nn2c1Nc1cccc(C(F)(F)F)c1CN1CCN(C)CC1 | – | – | – | 21 | 17 | – | – |
| Cc1nc2c(-c3cnc[nH]3)cc(N3CCOCC3)nn2c1Nc1cccc(C(F)(F)F)c1C | 49 | 2290 | 4680 | 12 | 8 | 912 | 2.6 |
| CC(=O)NCc1nc2c(-c3cnc[nH]3)cc(N3CCOCC3)nn2c1Cc1cccc(C(F)(F)F)c1C | 59 | > 30200 | > 30200 | 33 | 11 | > 30200 | 2 |
| Cc1c(Nc2c(CO)nc3c(N)cc(N4CCOC(CO)C4)nn23)cccc1C(F)(F)F (stereo in doubt; 65) | 138 | 692 | 355 | 79 | 43 | 6610 | 1.3 |
| Cc1c(Cc2c(CNCCS(C)(=O)=O)nc3c(N)cc(N4CCOCC4)nn23)cccc1C(F)(F)F | – | > 30200 | – | 138 | 186 | – | – |
| Cc1nc2c(C(=O)O)cc(N3CCOCC3)nn2c1Cc1cccc(C(F)(F)F)c1C | – | – | – | 513 | 316 | – | – |
